Publication PMC5706701, “Development of a homogenous high-throughput assay for inositol hexakisphosphate kinase 1 activity” (PLoS ONE, 2017)
Structures can show the parent of a compound that is named as a salt.

Biological target: T1, Human IP6K1 (Homo sapiens, UniProt Q92551)
T1 construct: GST (N, cleaved yes); made in house; host or cells: C43 E. coli, pGEX-6P-2
Assay: IP6K1 high-throughput screen of the Sigma LOPAC (ADP-Glo Max, single point);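 further: final compound concentration 10µM in 5% DMSO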
Type: biochemical

[1] = LOPAC single-point screen, ADP-Glo Max raw signal per well
[2] = LOPAC single-point screen, Z-score against plate average and StDev
[3] = Sigma LOPAC single-point screen, ADP-Glo Max raw signal per well
[4] = Sigma LOPAC single-point screen, Z-score from plate average and StDev
[5] = LOPAC single-point screen, Z-score from raw signal with plate average and StDev
[6] = LOPAC single-point screen, ADP-Glo Max luminescence raw signal per well
[7] = LOPAC single-point screen, Z-score relative to plate average and StDev
[8] = LOPAC single-point screen, Z-score from plate average and StDev

T1 sequence (Q92551 whole entry): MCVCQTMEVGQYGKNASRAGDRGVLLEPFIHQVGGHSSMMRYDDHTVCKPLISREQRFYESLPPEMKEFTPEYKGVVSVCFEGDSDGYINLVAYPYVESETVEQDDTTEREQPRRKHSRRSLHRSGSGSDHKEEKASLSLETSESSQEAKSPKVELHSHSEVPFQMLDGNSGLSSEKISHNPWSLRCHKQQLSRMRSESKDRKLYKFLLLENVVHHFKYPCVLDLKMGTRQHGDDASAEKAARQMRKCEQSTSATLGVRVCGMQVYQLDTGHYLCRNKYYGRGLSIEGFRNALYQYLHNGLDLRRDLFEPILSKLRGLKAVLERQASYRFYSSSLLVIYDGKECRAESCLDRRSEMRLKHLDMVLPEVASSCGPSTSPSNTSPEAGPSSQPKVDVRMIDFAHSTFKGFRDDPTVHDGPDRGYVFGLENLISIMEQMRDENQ

**Q.** Which “Raw Signal” value [1] does the source give for `COc1cc(C(O)CN)ccc1O.Cl` (racemic) [(±)-Normetanephrine hydrochloride] here?
**A.** 54540

**Q.** And the Z-score [2]?
**A.** 0.02461

**Q.** What does the source list for `CC(C)[N+](C)(CCOC(=O)C1c2ccccc2Oc2ccccc21)C(C)C` [Propantheline bromide]?
**A.** Raw Signal [3]: 58434; Z-score [4]: 0.4683

**Q.** What does the source list for `CN(C)C(N)=NCCC[C@H](N)C(=O)O.Cl` [N^G,N^G-Dimethylarginine hydrochloride]?
**A.** Raw Signal [1]: 52909; Z-score [5]: -0.4586

**Q.** With `Cl.NCC(O)c1ccc(O)cc1` (racemic) [(±)-Octopamine hydrochloride] as the compound, how does the “Raw Signal” value [1] read?
**A.** 52629

**Q.** What about the Z-score [5] of the same compound?
**A.** -0.2965

**Q.** How did the “Raw Signal” value [1] turn out when `CC(C)(C)c1cc(C=C(C#N)C#N)cc(C(C)(C)C)c1O` [Tyrphostin A9] was run?
**A.** 55633

**Q.** And the Z-score [2]?
**A.** -0.07593

**Q.** Which “Raw Signal” value [3] does the source give for `COc1ccccc1NC(=O)Nc1nc(-c2cccnc2)nc2ccccc12` [VUF 5574] here?
**A.** 58097

**Q.** What about the Z-score [4] of the same compound?
**A.** 0.4028

**Q.** With `CCN1CCC[C@H]1CNC(=O)c1cc(S(N)(=O)=O)ccc1OC` [(-)-Sulpiride] as the compound, how does the “Raw Signal” value [1] read?
**A.** 56775

**Q.** What about the Z-score [2] of the same compound?
**A.** 0.1459

**Q.** `O=c1c2ccccc2[nH]c(=S)n1CCN1CCC(=C(c2ccc(F)cc2)c2ccc(F)cc2)CC1` [Diacylglycerol Kinase Inhibitor II] was tested. Which “Raw Signal” value [1] did it give?
**A.** 55319

**Q.** And the Z-score [2]?
**A.** 0.03086

**Q.** Which “Raw Signal” value [1] does the source give for `C/C(=C\c1ccc(C(=O)O)cc1)c1ccc2c(c1)C(C)(C)CCC2(C)C` [TTNPB] here?
**A.** 53849

**Q.** What about the Z-score [5] of the same compound?
**A.** -0.4225

**Q.** For `CC1COc2c(N3CCN(C)CC3)c(F)cc3c(=O)c(C(=O)O)cn1c23` (centres unmarked) [Ofloxacin], which “Raw Signal” value [1] is on record?
**A.** 52269

**Q.** What about the Z-score [5] of the same compound?
**A.** -0.357

**Q.** What does the source list for `N.S=C(S)N1CCCC1` [Ammonium pyrrolidinedithiocarbamate]?
**A.** Raw Signal [3]: 60867; Z-score [4]: 0.9409

**Q.** Which results are given for `N=C(N)NC(CCC(=O)O)C(=O)O` (stereo not drawn) [alpha-Guanidinoglutaric acid]?
**A.** Raw Signal [1]: 54052; Z-score [5]: -0.2265

**Q.** `NC(N)=Nc1nc(CSCCC(N)=NS(N)(=O)=O)cs1` [Famotidine] was tested. Which “Raw Signal” value [1] did it give?
**A.** 53127

**Q.** And the Z-score [5]?
**A.** -0.4143

**Q.** With `CCCCOC(=O)NS(=O)(=O)c1sc(CC(C)C)cc1-c1ccc(Cn2c(CC)nc3c(C)cc(C)nc32)cc1` [L-162,313] as the compound, how does the “Raw Signal” value [1] read?
**A.** 54291

**Q.** What about the Z-score [2] of the same compound?
**A.** -0.01722

**Q.** Which “Raw Signal” value [1] does the source give for `CC(=N)NCCC[C@H](N)C(=O)O.Cl` here?
**A.** 54044

**Q.** And the Z-score [2]?
**A.** -0.05873

**Q.** Which “Raw Signal” value [6] does the source give for `CN(C)[C@@H]1C(O)=C(C(N)=O)C(=O)[C@@]2(O)C(O)=C3C(=O)c4c(O)ccc(Cl)c4[C@@H](O)[C@H]3C[C@@H]12` [Demeclocycline hydrochloride] here?
**A.** 42734

**Q.** And the Z-score [7]?
**A.** -2.525

**Q.** `OCCN(CCO)c1nc(N2CCCCC2)c2nc(N(CCO)CCO)nc(N3CCCCC3)c2n1` [Dipyridamole] was tested. Which “Raw Signal” value [6] did it give?
**A.** 52429

**Q.** What about the Z-score [7] of the same compound?
**A.** -0.5561

**Q.** How did the “Raw Signal” value [6] turn out when `Cc1cccc(C)c1OCC(C)N.Cl` (centres unmarked) [Mexiletene hydrochloride] was run?
**A.** 50431

**Q.** What about the Z-score [7] of the same compound?
**A.** -0.6658

**Q.** Which results are given for `N=C(N)NC(=O)Cc1c(Cl)cccc1Cl` [Guanfacine hydrochloride]?
**A.** Raw Signal [1]: 54831; Z-score [2]: -0.06825

**Q.** `COC(=O)[C@H]1[C@H]2C[C@@H]3c4[nH]c5cc(OC)ccc5c4CCN3C[C@H]2C[C@@H](OC(=O)c2cc(OC)c(OC)c(OC)c2)[C@@H]1OC` [Reserpine] was tested. Which “Raw Signal” value [1] did it give?
**A.** 59002

**Q.** What about the Z-score [2] of the same compound?
**A.** 0.1918

**Q.** How did the “Raw Signal” value [1] turn out when `N/C(=N\C(=O)c1nc(Cl)c(N)nc1N)NCc1ccc(Cl)c(Cl)c1` [3 ,4 -Dichlorobenzamil] was run?
**A.** 56444

**Q.** What about the Z-score [2] of the same compound?
**A.** 0.2593

**Q.** What does the source list for `CN1CCN(CCCN2c3ccccc3Sc3ccc(C(F)(F)F)cc32)CC1` [Trifluoperazine dihydrochloride]?
**A.** Raw Signal [3]: 58037; Z-score [4]: 0.3911

**Q.** With `Cl.Clc1ccc(Cn2c(CN3CCCC3)nc3ccccc32)cc1` [Clemizole hydrochloride] as the compound, how does the “Raw Signal” value [1] read?
**A.** 56495

**Q.** And the Z-score [5]?
**A.** -0.2498

**Q.** With `Oc1ccc2c3c1O[C@H]1c4[nH]c5ccccc5c4C[C@@]4(O)[C@@H](C2)N(CC2CC2)CC[C@]314` [Naltrindole hydrochloride] as the compound, how does the “Raw Signal” value [1] read?
**A.** 53741

**Q.** And the Z-score [5]?
**A.** -0.1096

**Q.** How did the “Raw Signal” value [1] turn out when `CC(N)c1cccc(Cl)c1Cl.Cl` (racemic) was run?
**A.** 54173

**Q.** What about the Z-score [5] of the same compound?
**A.** -0.2019

**Q.** Which results are given for `CN1CC[C@@]23CCCC[C@@H]2[C@@H]1Cc1ccc(O)cc13.O=C(O)C(O)C(O)C(=O)O` [Dextrorphan D-tartrate]?
**A.** Raw Signal [6]: 63036; Z-score [8]: 1.598

**Q.** Which “Raw Signal” value [1] does the source give for `Cc1nc(N=Nc2ccc(S(=O)(=O)O)cc2S(=O)(=O)O)c(COP(=O)(O)O)c(C=O)c1O` [PPADS] here?
**A.** 55598

**Q.** What about the Z-score [2] of the same compound?
**A.** -0.08273

**Q.** Which “Raw Signal” value [1] does the source give for `CN(C(=O)Cc1ccc(Cl)c(Cl)c1)C(CN1CCCC1)c1cccc(OCC(=O)O)c1.Cl` (centres unmarked) [ICI 204,448 hydrochloride] here?
**A.** 53600

**Q.** What about the Z-score [5] of the same compound?
**A.** -0.1333

**Q.** Which “Raw Signal” value [3] does the source give for `CCCCC#Cc1nc(N)c2ncn([C@@H]3O[C@H](C(=O)NCC)[C@@H](O)[C@H]3O)c2n1` [HE-NECA] here?
**A.** 57534

**Q.** And the Z-score [4]?
**A.** 0.4807

**Q.** Which results are given for `O=S(=O)(O)C1CCNCC1` [Piperidine-4-sulphonic acid]?
**A.** Raw Signal [1]: 54931; Z-score [5]: -0.2123

**Q.** Which results are given for `O=c1cc(O)cc(/C=C/c2ccc(O)c(O)c2)o1` [Hispidin]?
**A.** Raw Signal [6]: 48484; Z-score [7]: -1.357

**Q.** For `CC[C@@]1(O)C(=O)OCc2c1cc1n(c2=O)Cc2cc3ccccc3nc2-1` [(S)-(+)-Camptothecin], which “Raw Signal” value [3] is on record?
**A.** 58626

**Q.** What about the Z-score [4] of the same compound?
**A.** 0.7025

**Q.** What does the source list for `COc1cc2c(cc1O)CC[C@@H]1[C@@H]2CC[C@]2(C)[C@@H](O)CC[C@@H]12` [2-methoxyestradiol]?
**A.** Raw Signal [3]: 58620; Z-score [4]: 0.7102

**Q.** How did the “Raw Signal” value [6] turn out when `CC(C)[C@@]1(NC(=O)[C@@H]2C[C@@H]3c4cccc5[nH]cc(c45)C[C@H]3N(C)C2)O[C@@]2(O)[C@@H]3CCCN3C(=O)[C@H](Cc3ccccc3)N2C1=O.CS(=O)(=O)O` [Dihydroergocristine methanesulfonate] was run?
**A.** 65195

**Q.** And the Z-score [8]?
**A.** 2.037

**Q.** For `CC(=O)N[C@@H](CS)C(=O)O` [N-Acetyl-L-Cysteine], which “Raw Signal” value [3] is on record?
**A.** 65323

**Q.** What about the Z-score [4] of the same compound?
**A.** 1.305

**Q.** For `NNC(=O)c1ccc(O)cc1` [4-Hydroxybenzhydrazide], which “Raw Signal” value [3] is on record?
**A.** 59100

**Q.** And the Z-score [4]?
**A.** 0.7987

**Q.** For `Cl.c1ccc(CN2CCC3(CCCc4ccccc43)CC2)cc1` [L-687,384 hydrochloride], which “Raw Signal” value [3] is on record?
**A.** 58533

**Q.** And the Z-score [4]?
**A.** 0.6955

**Q.** How did the Z-score [5] turn out when `CCn1cc(C(=O)O)c(=O)c2ccc(Cc3ccccc3)nc21` [Amfonelic acid] was run?
**A.** -0.107

**Q.** Which “Raw Signal” value [1] does the source give for `C1COC(NC(C2CC2)C2CC2)=N1` [Rilmenidine hemifumarate] here?
**A.** 56006

**Q.** What about the Z-score [2] of the same compound?
**A.** -0.003459

**Q.** `COc1cc(OC)c(C=C2C(O)=Nc3ccccc32)c(OC)c1` [IC 261] was tested. Which “Raw Signal” value [1] did it give?
**A.** 54461

**Q.** And the Z-score [5]?
**A.** -0.3036

**Q.** Which “Raw Signal” value [1] does the source give for `Br.CCCN1CCC2c3cc(O)ccc3CCC21` (racemic) [cis-(±)-8-OH-PBZI hydrobromide] here?
**A.** 53901

**Q.** What about the Z-score [2] of the same compound?
**A.** -0.08275

**Q.** `CCN1C[C@]2(C)CC[C@H](O)[C@]34C1[C@@H](C[C@H]23)[C@@]1(O)C[C@H](OC)[C@H]2C[C@@H]4[C@@H]1[C@H]2O` [Karakoline] was tested. Which “Raw Signal” value [1] did it give?
**A.** 53043

**Q.** And the Z-score [5]?
**A.** -0.2269

**Q.** How did the “Raw Signal” value [3] turn out when `Nc1nc(O)c2ncn(COC(CO)CO)c2n1` [Ganciclovir] was run?
**A.** 57228

**Q.** What about the Z-score [4] of the same compound?
**A.** 0.4186

**Q.** Which “Raw Signal” value [1] does the source give for `COc1cc(-c2ccc(=O)[nH]n2)ccc1OC(F)F` [Zardaverine] here?
**A.** 57604

**Q.** And the Z-score [2]?
**A.** 0.307

**Q.** Which “Raw Signal” value [1] does the source give for `O=C1NCN(c2ccccc2)C12CCN(CC1COc3ccccc3O1)CC2` (centres unmarked) [Spiroxatrine] here?
**A.** 55965

**Q.** And the Z-score [2]?
**A.** -0.01142
